Source: US20230192686A1, “1H-PYRROLO[2,3-B]PYRIDINES AND PREPARATION AND USES THEREOF” (BioSplice Therapeutics, Inc., priority 2021, published 2023)

Target: recombinant DYRK1A kinase (Homo sapiens, UniProt Q13627)
Experiment: DYRK1A kinase assay (Ser/Thr 18 peptide Z-lyte FRET)
Type: biochemical
Settings: DYRK1A kinase activity; 15 μM ATP, 4 μM Ser/Thr peptide 18, one hour at room temperature
Experimental: Representative compounds were screened using the assay procedure for DYRK1A kinase activity as described below.
Each compound was dissolved in DMSO as a 10 mM stock and used to prepare compound source plates. Serial dilution (1:3, 11-point dose-response curves from 10 μM to 0.00016 μM) and compound transfer was performed using the ECHO 550 (Labcyte, Sunnyvale, Calif.) into 1536-well black-walled round bottom plates (Corning).
The DYRK1A kinase assay was run using the Ser/Thr 18 peptide Z-lyte assay kit according to manufacturer's instructions (Life Technologies—a Division of Thermo-Fisher). This is a non-radioactive assay using fluorescence resonance energy transfer (FRET) between coumarin and fluorescein to detect kinase activity which is represented as a ratio of coumarin emission/fluorescein emission.
Briefly, recombinant DYRK1A kinase, ATP and Ser/Thr peptide 18 were prepared in 1× Kinase buffer to final concentrations of 0.25 μg/mL, 15 μM, and 4 μM respectively. The mixture was allowed to incubate with the representative compounds for one hour at room temperature. All reactions were performed in duplicate. Unphosphorylated (“0% Control”) and phosphorylated (“100% control”) forms of Ser/Thr 18 served as control reactions. Additionally, an 11-point dose-response curve of Staurosporine (1 uM top) was run to serve as a positive compound control.
After incubation, Development Reagent A was diluted in Development Buffer then added to the reaction and allowed to further incubate for one hour at room temperature. The plate was read at Ex 400 Em 455 to detect the coumarin signal and Ex 400 Em 520 to measure the signal (EnVision Multilabel Plate Reader, PerkinElmer).
The Emission ratio (Em) was calculated as a ratio of the coumarin (C) emission signal (at 445 nm)/Fluorescein (F) emission signal (at 520 nm). The percent phosphorylation was then calculated using the following formula: [1−((Em ratio×F100%)−C100%)/((C0%−C100%)+(Em ratio×(F100%−F0%)))]. Dose-response curves were generated, and inhibitory concentration (IC50) values were calculated using non-linear regression curve fit in the Dotmatics' Studies Software (Bishops Stortford, UK).

Compound | EC50 [nM]
CN1CCC(Oc2ncnc3ccc(-c4c[nH]c5ncccc45)cc23)CC1 [Compound 99, 4-((1-Methylpiperidin-4-yl)oxy)-6-(1H-pyrrolo[2,3-b]pyridin-3-yl) quinazoline] | 2
CN1CCC(Nc2ncnc3ccc(-c4c[nH]c5ncccc45)cc23)CC1 [Compound 100, N-(1-Methylpiperidin-4-yl)-6-(1H-pyrrolo[2,3-b]pyridin-3-yl) quinazolin-4-amine] | 6
COc1ccc(Nc2ncnc3ccc(-c4c[nH]c5ncccc45)cc23)cn1 [Compound 101, N-(6-Methoxypyridin-3-yl)-6-(1H-pyrrolo[2,3-b]pyridin-3-yl) quinazolin-4-amine] | 6
CN1CCC(Oc2ccc(Nc3ncnc4ccc(-c5c[nH]c6ncccc56)cc34)cn2)CC1 [Compound 102, N-(6-((1-Methylpiperidin-4-yl)oxy)pyridin-3-yl)-6-(1H-pyrrolo[2,3-b]pyridin-3-yl)quinazolin-4-amine] | 2
CN1CCN(c2ccc(CNc3ncnc4ccc(-c5c[nH]c6ncccc56)cc34)cn2)CC1 [Compound 104, N-((6-(4-Methylpiperazin-1-yl)pyridin-3-yl)methyl)-6-(1H-pyrrolo[2,3-b]pyridin-3-yl)quinazolin-4-amine] | 11
CN1CCN(c2cc(CNc3ncnc4ccc(-c5c[nH]c6ncccc56)cc34)ccn2)CC1 [Compound 105, N-((2-(4-Methylpiperazin-1-yl)pyridin-4-yl)methyl)-6-(1H-pyrrolo [2,3-b]pyridin-3-yl)quinazolin-4-amine] | 4
CN1CCC(NC(=O)c2ncnc3ccc(-c4c[nH]c5ncccc45)cc23)CC1 [Compound 106, N-(1-Methylpiperidin-4-yl)-6-(1H-pyrrolo[2,3-b]pyridin-3-yl) quinazoline-4-carboxamide] | 3
O=C1CC2(CCNCC2)Oc2cc(-c3c[nH]c4ncc(Cl)cc34)ccc21 [Compound 226, 7-(5-Chloro-1H-pyrrolo[2,3-b]pyridin-3-yl)spiro[chromane-2,4′-piperidin]-4-one] | 36
Cc1nc2c(F)cc(-c3c[nH]c4ncc(C5=CCN(C)CC5)cc34)cc2n1C(C)C [Compound 325, 4-Fluoro-1-isopropyl-2-methyl-6-(5-(1-methyl-1,2,3,6-tetrahydropyridin-4-yl)-1H-pyrrolo[2,3-b]pyridin-3-yl)-1H-benzo[d]imidazole] | 2
Cc1nc2c(F)cc(-c3c[nH]c4ncc(N5CCN(C)CC5)cc34)cc2n1C(C)C [Compound 367, 4-Fluoro-1-isopropyl-2-methyl-6-(5-(4-methylpiperazin-1-yl)-1H-pyrrolo[2,3-b]pyridin-3-yl)-1H-benzo[d]imidazole] | 2
Cc1nc2c(F)cc(-c3c[nH]c4ncc(CN5CCN(C)CC5)cc34)cc2n1C(C)C [Compound 409, 4-Fluoro-1-isopropyl-2-methyl-6-(5-((4-methylpiperazin-1-yl)methyl)-1H-pyrrolo[2,3-b]pyridin-3-yl)-1H-benzo[d]imidazole] | 13
CN1CCN(Cc2cnc3[nH]cc(-c4ccc5nccnc5c4)c3c2)CC1 [Compound 439, 6-(5-((4-Methylpiperazin-1-yl)methyl)-1H-pyrrolo[2,3-b]pyridin-3-yl) quinoxaline] | 16
Cc1nc2c(F)cc(-c3c[nH]c4ncc(C(=O)NC5CCN(C)CC5)cc34)cc2n1C(C)C [Compound 451, 3-(4-Fluoro-1-isopropyl-2-methyl-1H-benzo[d]imidazol-6-yl)-N-(1-methylpiperidin-4-yl)-1H-pyrrolo[2,3-b]pyridine-5-carboxamide] | 4
CN1CCN(C(=O)c2cnc3[nH]cc(-c4ccn5ncc(-c6cnn(C)c6)c5c4)c3c2)CC1 [Compound 502, (3-(3-(1-Methyl-1H-pyrazol-4-yl)pyrazolo[1,5-a]pyridin-5-yl)-1H-pyrrolo[2,3-b]pyridin-5-yl)(4-methylpiperazin-1-yl)methanone] | 16
Cc1cn2c(n1)CN(C(=O)c1cnc3[nH]cc(-c4cc(F)c5nc(C)n(C(C)C)c5c4)c3c1)CC2 [Compound 577, (3-(4-Fluoro-1-isopropyl-2-methyl-1H-benzo[d]imidazol-6-yl)-1H-pyrrolo[2,3-b]pyridin-5-yl)(2-methyl-5,6-dihydroimidazo[1,2-a]pyrazin-7(8H)-yl)methanone] | 3
CN1CCC(C(=O)Nc2cnc3[nH]cc(-c4ccc5ncccc5c4)c3c2)CC1 [Compound 648, 1-Methyl-N-(3-(quinolin-6-yl)-1H-pyrrolo[2,3-b]pyridin-5-yl) piperidine-4-carboxamide] | 2
Cc1nc2c(F)cc(-c3c[nH]c4ncc(C(=O)Nc5cnn(C6CCN(C)CC6)c5)cc34)cc2n1C(C)C [Compound 703, 3-(4-Fluoro-1-isopropyl-2-methyl-1H-benzo[d]imidazol-6-yl)-N-(1-(1-methylpiperidin-4-yl)-1H-pyrazol-4-yl)-1H-pyrrolo[2,3-b]pyridine-5-carboxamide] | 3

More lines, now with the values ahead:

EC50 [nM] | Compound
1 | c1cncc(CNc2ncnc3ccc(-c4c[nH]c5ncccc45)cc23)c1 [Compound 103, N-(Pyridin-3-ylmethyl)-6-(1H-pyrrolo[2,3-b]pyridin-3-yl)quinazolin-4-amine]
52 | O=C(c1ncnc2ccc(-c3c[nH]c4ncccc34)cc12)N1CCNC2(CC2)C1 [Compound 108, (6-(1H-Pyrrolo[2,3-b]pyridin-3-yl)quinazolin-4-yl)(4,7-diazaspiro [2.5]octan-7-yl)methanone]
1 | COc1ccnc2[nH]cc(-c3ccn4ncc(C(=O)NC5CCN(C)CC5)c4c3)c12 [Compound 128, 5-(4-Methoxy-1H-pyrrolo[2,3-b]pyridin-3-yl)-N-(1-methylpiperidin-4-yl)pyrazolo[1,5-a]pyridine-3-carboxamide]
10 | Cn1cc(-c2ccnc3[nH]cc(-c4ccc5ncccc5c4)c23)cn1 [Compound 186, 6-(4-(1-methyl-1H-pyrazol-4-yl)-1H-pyrrolo[2,3-b]pyridin-3-yl) quinoline]
16 | CN1CCN(C(=O)c2cnn3ccc(-c4c[nH]c5ncc(F)cc45)cc23)CC1 [Compound 257, (5-(5-Fluoro-1H-pyrrolo[2,3-b]pyridin-3-yl)pyrazolo[1,5-a]pyridin-3-yl)(4-methylpiperazin-1-yl)methanone]
4 | Cc1cnc2[nH]cc(-c3ccc4nccn4c3)c2c1 [Compound 280, 6-(5-methyl-1H-pyrrolo[2,3-b]pyridin-3-yl)imidazo[1,2-a]pyridine]
96 | CN1CCN(Cc2cnc3[nH]cc(-c4ccc5c(c4)C(C)(C)CNC5=O)c3c2)CC1 [Compound 435, 4,4-dimethyl-6-(5-((4-methylpiperazin-1-yl)methyl)-1H-pyrrolo[2,3-b]pyridin-3-yl)-3,4-dihydroisoquinolin-1(2H)-one]
15 | CN1CCC(NC(=O)c2cnc3[nH]cc(-c4ccc5ncncc5c4)c3c2)CC1 [Compound 482, N-(1-Methylpiperidin-4-yl)-3-(quinazolin-6-yl)-1H-pyrrolo[2,3-b] pyridine-5-carboxamide]
7 | Cc1nc2c(F)cc(-c3c[nH]c4ncc(C(=O)N5CCN(C)CC5)cc34)cc2n1C(C)C [Compound 493, (3-(4-Fluoro-1-isopropyl-2-methyl-1H-benzo[d]imidazol-6-yl)-1H-pyrrolo[2,3-b]pyridin-5-yl)(4-methylpiperazin-1-yl)methanone]
9 | CN1CCN(C(=O)c2cnc3[nH]cc(-c4ccc5c(c4)OCCNC5=O)c3c2)CC1 [Compound 521, 8-(5-(4-Methylpiperazine-1-carbonyl)-1H-pyrrolo[2,3-b]pyridin-3-yl)-3,4-dihydrobenzo[f][1,4]oxazepin-5(2H)-one]
2 | Cc1nc2c(F)cc(-c3c[nH]c4ncc(C(=O)N5C6CCC5CN(C)C6)cc34)cc2n1C(C)C [Compound 535, (3-(4-Fluoro-1-isopropyl-2-methyl-1H-benzo[d]imidazol-6-yl)-1H-pyrrolo[2,3-b]pyridin-5-yl)(3-methyl-3,8-diazabicyclo[3.2.1]octan-8-yl)methanone]
10 | Cc1cn2c(n1)CN(C(=O)c1cnc3[nH]cc(-c4cc5n(c4)CCNC5=O)c3c1)CC2 [Compound 573, 7-(5-(2-Methyl-5,6,7,8-tetrahydroimidazo[1,2-a]pyrazine-7-carbonyl)-1H-pyrrolo[2,3-b]pyridin-3-yl)-3,4-dihydropyrrolo[1,2-a]pyrazin-1(2H)-one]
2 | Cc1nc2c(F)cc(-c3c[nH]c4ncc(C(=O)Nc5cnn(C6CCNCC6)c5)cc34)cc2n1C(C)C [Compound 661, 3-(4-Fluoro-1-isopropyl-2-methyl-1H-benzo[d]imidazol-6-yl)-N-(1-(piperidin-4-yl)-1H-pyrazol-4-yl)-1H-pyrrolo[2,3-b]pyridine-5-carboxamide]
